Assay results taken from patent US20250026721A1, “COMPOUNDS AND METHODS FOR MODULATING RAS-PI3K” (Vividion Therapeutics, Inc., priority 2023, published 2025).

Columns and labels:
[1] = tested on: pAKT(S473) in H358 cell line; assay: In vitro Phospho-AKT(S473) HTRF analysis in H358 cells; format: cell-based; conditions: Homo sapiens, NCI-H358, 0.5 h; for IC50: H358 cells, 30 minutes at 37° C.; for Emax: read-out: H358 pAKT Imax % control
Procedure: Example 5. In Vitro Phosgho-AKT(S473) Analysis
Functional activity of the compounds to inhibit pAKT were assessed in FaDu or H358 cell lines as indicated below.
• Complete Media • FBS, Corning catalog #35-010-CV • Anti-Anti, Gibco catalog #15240-062 • 96 well plate, Corning catalog #3610 • TrypLE, Gibco catalog #12604013 • Phospho-AKT(S473) HTRF kit, Cisbio catalog #64AKSPET
Cells were detached from the tissue culture flask with TrypLE. The cells were pelleted at 500×g for 5 min, TrypLe was removed and then resuspended in the necessary volume of media+1% FBS to give the appropriate cell density (17,500 cells/mL for FaDu; 20,000 cells/mL for H358). 100 μL of cell suspension/well was dispensed into the 96-well plate while keeping the outer wells of the plate free of cells and filled with PBS to prevent evaporation of interior wells. The plate was incubated at 37° C. and allowed to adhere overnight. The cells were treated with a dose response of compound and incubated at 37° C. for 30 minutes. The cells were then processed and pAKT(S473) levels were assessed following the specifications of the Cisbio HTRF kit.

PIK3CA = molecular target: T1, PIK3CA (Homo sapiens, UniProt P42336); assay: In vitro ELISA target engagement assay for PIK3CA in Jurkat cellular lysate (competition with PIK3CA Biotin Probe); format: binding; conditions: 1 hour at rt, then 500 nM PIK3CA Biotin Probe, read-out: Elisa Target Engagement Assay (TE50)
T1 construct: endogenous in cells; host or cells: Jurkat cell lysate
T1 sequence (P42336 whole entry): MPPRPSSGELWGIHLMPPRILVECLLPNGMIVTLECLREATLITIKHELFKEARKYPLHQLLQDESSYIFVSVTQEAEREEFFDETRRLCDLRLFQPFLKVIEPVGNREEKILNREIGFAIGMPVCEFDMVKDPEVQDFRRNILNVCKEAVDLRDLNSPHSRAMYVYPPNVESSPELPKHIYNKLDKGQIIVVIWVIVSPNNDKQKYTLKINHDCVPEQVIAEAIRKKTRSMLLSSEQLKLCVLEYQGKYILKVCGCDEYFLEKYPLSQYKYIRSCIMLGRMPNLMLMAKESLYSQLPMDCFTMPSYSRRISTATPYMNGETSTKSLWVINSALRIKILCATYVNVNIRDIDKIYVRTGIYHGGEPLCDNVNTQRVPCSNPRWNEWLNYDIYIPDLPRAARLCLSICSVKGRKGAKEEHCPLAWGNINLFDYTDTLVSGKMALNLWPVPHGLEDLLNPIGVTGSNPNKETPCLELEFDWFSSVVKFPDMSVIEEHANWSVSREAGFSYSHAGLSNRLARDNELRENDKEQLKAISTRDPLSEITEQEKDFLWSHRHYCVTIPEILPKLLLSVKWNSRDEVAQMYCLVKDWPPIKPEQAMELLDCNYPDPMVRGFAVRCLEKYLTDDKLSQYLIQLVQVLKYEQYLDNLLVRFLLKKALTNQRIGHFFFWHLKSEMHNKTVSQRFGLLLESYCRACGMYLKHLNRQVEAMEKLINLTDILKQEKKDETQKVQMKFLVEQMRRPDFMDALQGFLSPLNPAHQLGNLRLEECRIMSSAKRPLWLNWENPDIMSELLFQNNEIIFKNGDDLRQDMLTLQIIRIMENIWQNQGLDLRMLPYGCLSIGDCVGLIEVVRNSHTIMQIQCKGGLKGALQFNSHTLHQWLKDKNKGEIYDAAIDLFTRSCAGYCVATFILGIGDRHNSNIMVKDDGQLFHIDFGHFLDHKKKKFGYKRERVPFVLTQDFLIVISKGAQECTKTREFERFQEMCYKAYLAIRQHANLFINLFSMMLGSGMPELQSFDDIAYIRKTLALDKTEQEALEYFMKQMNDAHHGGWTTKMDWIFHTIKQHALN
T1 sequence (P27986 whole entry partner): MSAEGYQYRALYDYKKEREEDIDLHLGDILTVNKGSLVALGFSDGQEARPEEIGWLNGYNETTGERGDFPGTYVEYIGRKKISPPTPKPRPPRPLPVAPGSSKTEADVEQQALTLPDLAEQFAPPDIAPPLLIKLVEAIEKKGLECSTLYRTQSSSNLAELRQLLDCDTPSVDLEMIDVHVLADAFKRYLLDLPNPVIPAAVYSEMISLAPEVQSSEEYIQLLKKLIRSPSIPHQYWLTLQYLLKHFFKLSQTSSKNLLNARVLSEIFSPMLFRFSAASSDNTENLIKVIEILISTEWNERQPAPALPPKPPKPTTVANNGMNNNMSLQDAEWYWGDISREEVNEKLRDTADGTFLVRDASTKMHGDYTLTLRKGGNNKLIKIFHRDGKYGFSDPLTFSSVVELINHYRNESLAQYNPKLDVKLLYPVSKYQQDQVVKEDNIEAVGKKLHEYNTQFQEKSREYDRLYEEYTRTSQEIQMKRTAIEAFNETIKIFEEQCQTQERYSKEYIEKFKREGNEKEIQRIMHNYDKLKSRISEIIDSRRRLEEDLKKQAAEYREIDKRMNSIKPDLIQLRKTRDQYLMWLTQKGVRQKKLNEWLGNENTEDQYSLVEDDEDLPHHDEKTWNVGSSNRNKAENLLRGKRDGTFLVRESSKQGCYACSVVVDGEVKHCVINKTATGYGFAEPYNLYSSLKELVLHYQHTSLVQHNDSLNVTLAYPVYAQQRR
How it was run: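 Jurkat lysate from sonicated frozen cells was preincubated 1 h at rt with serially diluted compound up to 200 μM, then labelled 1 h at rt with PIK3CA biotin probe at 500 nM final. Probe-bound PIK3CA was captured on antibody-coated plates and detected with Neutravidin-HRP luminescence; TE50 derived from the dose response.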

[2] = tested on: pAKT(S473) in FaDu cell line; assay: In vitro Phospho-AKT(S473) HTRF analysis in FaDu cells; format: cell-based; conditions: Homo sapiens, 0.5 h; for IC50: FaDu cells, 30 minutes at 37° C.; for Emax: FaDu, read-out: FaDu pAKT Imax % control
How it was run: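 FaDu or H358 cells were plated overnight in medium with 1% FBS, then exposed to a compound dose response for 30 minutes at 37° C. Phospho-AKT(S473) levels were measured by HTRF.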

Question: For `C[C@H](/C=C\S(C)(=O)=O)NC(=O)[C@]1(F)CCN(C(=O)[C@H]2CN(CC(F)(F)F)C[C@H]2c2ccccc2Cl)[C@@H](C)C1` (single isomer, unassigned) [Compound 302, (2*S,4*S)-1-((3R,4R)-4-(2-chlorophenyl)-1-(2,2,2-trifluoroethyl)pyrrolidine-3-carbonyl)-4-fluoro-2-methyl-N-((R,Z)-4-(methylsulfonyl)but-3-en-2-yl)piperidine-4-carboxamide], which IC50 [1] is on record?
Answer: 464 nM

Question: And the Emax [1]?
Answer: 87.2%

Question: And the IC50 (PIK3CA)?
Answer: 440 nM

Question: And the IC50 [2]?
Answer: 696 nM

Question: And the Emax [2]?
Answer: 101%

Question: `C[C@H](/C=C\S(C)(=O)=O)NC(=O)[C@@]1(F)CCCN(C(=O)[C@H]2CN(CC(F)(F)F)C[C@H]2c2ccccc2Cl)CC1` [Compound 165, (R)-1-((3R,4R)-4-(2-chlorophenyl)-1-(2,2,2-trifluoroethyl)pyrrolidine-3-carbonyl)-4-fluoro-N—((R,Z)-4-(methylsulfonyl)but-3-en-2-yl)azepane-4-carboxamide] was tested. Which IC50 [1] did it give?
Answer: 115 nM

Question: What about the Emax [1] of the same compound?
Answer: 95.7%

Question: What about the IC50 (PIK3CA) of the same compound?
Answer: 164 nM

Question: What about the IC50 [2] of the same compound?
Answer: 214 nM

Question: What about the Emax [2] of the same compound?
Answer: 96.7%

Question: For `Cc1ccc([C@@H]2CN(CC(F)(F)F)C[C@@H]2C(=O)N2CCC[C@](F)(C(=O)N[C@H](C)/C=C\S(C)(=O)=O)CC2)c(Cl)c1` (single isomer, unassigned) [Compound 169, (R)-1-((3*R,4*R)-4-(2-chloro-4-methylphenyl)-1-(2,2,2-trifluoroethyl)pyrrolidine-3-carbonyl)-4-fluoro-N—((R,Z)-4-(methylsulfonyl)but-3-en-2-yl)azepane-4-carboxamide], which IC50 [1] is on record?
Answer: 202 nM

Question: What about the Emax [1] of the same compound?
Answer: 106%

Question: What about the IC50 (PIK3CA) of the same compound?
Answer: 210 nM

Question: And the IC50 [2]?
Answer: 154 nM

Question: And the Emax [2]?
Answer: 108%

Question: With `C[C@H](/C=C\S(C)(=O)=O)NC(=O)[C@@]1(F)CCCN(C(=O)[C@H]2CN(CC(F)(F)Cl)C[C@H]2c2ccccc2Cl)CC1` [Compound 195, (R)-1-((3R,4R)-1-(2-chloro-2,2-difluoroethyl)-4-(2-chlorophenyl)pyrrolidine-3-carbonyl)-4-fluoro-N-((R,Z)-4-(methylsulfonyl)but-3-en-2-yl)azepane-4-carboxamide] as the compound, how does the IC50 [1] read?
Answer: 123 nM

Question: What about the Emax [1] of the same compound?
Answer: 85%

Question: What about the IC50 (PIK3CA) of the same compound?
Answer: 190 nM

Question: And the IC50 [2]?
Answer: 113 nM

Question: What about the Emax [2] of the same compound?
Answer: 96.9%

Question: `C[C@H](/C=C\S(C)(=O)=O)NC(=O)[C@@]1(F)CCCN(C(=O)[C@H]2CN(CC(F)(F)F)C[C@H]2c2c(F)cccc2Cl)CC1` [Compound 171, (R)-1-((3R,4R)-4-(2-chloro-6-fluorophenyl)-1-(2,2,2-trifluoroethyl)pyrrolidine-3-carbonyl)-4-fluoro-N—((R,Z)-4-(methylsulfonyl)but-3-en-2-yl)azepane-4-carboxamide] was tested. Which IC50 [1] did it give?
Answer: 82.6 nM

Question: And the Emax [1]?
Answer: 101%

Question: And the IC50 (PIK3CA)?
Answer: 92.7 nM

Question: What about the IC50 [2] of the same compound?
Answer: 78.9 nM

Question: What about the Emax [2] of the same compound?
Answer: 97.8%

Question: What does the source list for `C[C@H](/C=C\S(C)(=O)=O)NC(=O)[C@@]1(F)CCCN(C(=O)[C@@H]2CCN(CC(F)(F)F)C[C@H]2c2ccccc2Cl)CC1` (single isomer, unassigned) [Compound 306, (R)-1-((3*R,4*R)-3-(2-chlorophenyl)-1-(2,2,2-trifluoroethyl)piperidine-4-carbonyl)-4-fluoro-N-((R,Z)-4-(methylsulfonyl)but-3-en-2-yl)azepane-4-carboxamide]?
Answer: IC50 [1]: 263 nM; Emax [1]: 88%; IC50 (PIK3CA): 310 nM; IC50 [2]: 334 nM; Emax [2]: 93%

Question: For `C[C@H](/C=C\S(C)(=O)=O)NC(=O)[C@@]1(F)CCCN(C(=O)[C@H]2CN(CC(F)F)C[C@H]2c2ccccc2Cl)CC1` [Compound 197, (R)-1-((3R,4R)-4-(2-chlorophenyl)-1-(2,2-difluoroethyl)pyrrolidine-3-carbonyl)-4-fluoro-N-((R,Z)-4-(methylsulfonyl)but-3-en-2-yl) azepane-4-carboxamide], which IC50 [1] is on record?
Answer: 103 nM

Question: What about the Emax [1] of the same compound?
Answer: 91.4%

Question: What about the IC50 (PIK3CA) of the same compound?
Answer: 134 nM

Question: What about the IC50 [2] of the same compound?
Answer: 129 nM

Question: And the Emax [2]?
Answer: 89%

Question: With `C[C@H](/C=C\S(C)(=O)=O)NC(=O)[C@@]1(F)CCCN(C(=O)[C@H]2CN(CC(F)(F)F)CC[C@@H]2c2ccccc2Cl)CC1` (single isomer, unassigned) [Compound 308, (R)-1-((3*R,4*S)-4-(2-chlorophenyl)-1-(2,2,2-trifluoroethyl)piperidine-3-carbonyl)-4-fluoro-N-((R,Z)-4-(methylsulfonyl)but-3-en-2-yl) azepane-4-carboxamide] as the compound, how does the IC50 [1] read?
Answer: 408 nM

Question: And the Emax [1]?
Answer: 91%

Question: And the IC50 (PIK3CA)?
Answer: 850 nM

Question: What about the IC50 [2] of the same compound?
Answer: 580 nM

Question: And the Emax [2]?
Answer: 93.4%
